# Assay results as given in PubChem BioAssay (NCI).
#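 Method: 48-hour compound exposure of cells in 96-well plates, five concentrations, linear interpolation of endpoints. TGI denotes the concentration required for complete inhibition of growth.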
# Columns and labels:
# Test in all cases: NCI anticancer screen, dose series, 48 h
# ACHN renal = tested on: ACHN renal
# MOLT-4 leukemia = tested on: MOLT-4 leukemia
# IGROV1 ovarian = tested on: IGROV1 ovarian
# U251 CNS = tested on: U251 CNS
# UACC-257 melanoma = tested on: UACC-257 melanoma
# COLO 205 colon = tested on: COLO 205 colon
# CCRF-CEM leukemia = tested on: CCRF-CEM leukemia
# OVCAR-4 ovarian = tested on: OVCAR-4 ovarian
# HS 578T breast = tested on: HS 578T breast
SMILES,TGI (ACHN renal),TGI (MOLT-4 leukemia),TGI (IGROV1 ovarian),TGI (U251 CNS),TGI (UACC-257 melanoma),TGI (COLO 205 colon),TGI (CCRF-CEM leukemia),TGI (OVCAR-4 ovarian),TGI (HS 578T breast)
O=C1C(c2c(O)[nH]c3ccc(I)cc23)=Nc2ccccc21,11.8 µM,> 100 µM,9.24 µM,7.36 µM,> 75.1 µM,> 100 µM,> 100 µM,> 44.7 µM,> 100 µM
Clc1ccc(Nc2nnc(CNc3ccc(-c4nnc(Nc5ccc(Cl)cc5)o4)cc3)o2)cc1,43.6 µM,49.3 µM,30.4 µM,23.2 µM,50.6 µM,36.3 µM,> 100 µM,42.6 µM,36.7 µM
CN(C)CCCN=c1c2ccccc2n(C)c2[nH]c(=O)n(C)c(=O)c12,98.3 µM,12.1 µM,> 100 µM,15 µM,13.8 µM,11.9 µM,16.8 µM,36.2 µM,52.6 µM
CN(C)C=Nc1c2c(nc3ccccc13)CCCC2,> 100 µM,> 100 µM,> 100 µM,> 100 µM,> 100 µM,> 100 µM,> 100 µM,> 100 µM,> 100 µM
COC(=O)C1=C(C)NC2=C(C(=O)c3ccccc32)C1c1cn[nH]c1-c1ccccc1 (centres undefined),> 100 µM,> 100 µM,> 100 µM,> 100 µM,> 100 µM,52 µM,> 100 µM,> 100 µM,> 100 µM
O=C(c1cccnc1)N1N=C(c2ccc3c(c2)OCO3)CC1(O)c1cc(F)c(Cl)cc1Cl (centres undefined),38.9 µM,> 100 µM,34.1 µM,32.9 µM,51.2 µM,31.2 µM,75.4 µM,> 100 µM,> 100 µM
O=C(NCCC1CN(S(=O)(=O)C(F)(F)F)c2ccccc21)OCc1ccccc1 (centres undefined),> 100 µM,> 100 µM,> 100 µM,> 100 µM,> 100 µM,> 100 µM,> 100 µM,> 100 µM,> 100 µM
CC(C)(CO)NC(=O)c1cccs1,> 100 µM,> 100 µM,> 100 µM,> 100 µM,> 100 µM,> 100 µM,> 100 µM,> 100 µM,–
CC(=O)N1CCN(CCCCN2c3ccccc3Sc3cc(N=[N+]=[N-])ccc32)CC1,28.2 µM,25.3 µM,29.1 µM,27.6 µM,40.2 µM,29.7 µM,33.2 µM,–,32.7 µM
COc1ccccc1[C@@H]1CCC2CC[C@@H](c3ccccc3OC)[N+]21Cc1ccccc1 (some centres undefined),12.6 µM,7.43 µM,5.7 µM,11.2 µM,14.1 µM,1.84 µM,20.3 µM,16.1 µM,35.8 µM
N#Cc1c(O)c(C=O)c(=O)n2c1[nH]c1ccccc12,> 100 µM,> 100 µM,> 100 µM,> 100 µM,> 100 µM,> 100 µM,> 100 µM,> 100 µM,> 100 µM
COc1cc(C(=O)N(C(=O)N2CCCCC2)c2ccccc2)cc(OC)c1OC,> 100 µM,> 100 µM,> 100 µM,> 100 µM,> 100 µM,> 100 µM,> 100 µM,–,–
